Test results from ChEMBL document CHEMBL3217615, “Novel 3,5-bis(arylidiene)-4-piperidone based monocarbonyl analogs of curcumin: anticancer activity evaluation and mode of action study” (2014).

Assays:
Type in all cases: functional
[1] = Growth inhibition of human OVCAR4 cells assessed as cell growth at 10^-5 M after 48 hrs by sulforhodamine B assay; conditions: OVCAR-4, 48 h, read-out: Activity
[2] = Growth inhibition of human OVCAR5 cells assessed as cell growth at 10^-5 M after 48 hrs by sulforhodamine B assay; conditions: OVCAR-5, 48 h, read-out: Activity
[3] = Growth inhibition of human UACC62 cells assessed as cell growth at 10^-5 M after 48 hrs by sulforhodamine B assay; conditions: UACC-62, 48 h, read-out: Activity
Malme-3M = test: Growth inhibition of human MALME-3M cells assessed as cell growth at 10^-5 M after 48 hrs by sulforhodamine B assay; conditions: read-out: Activity
SNB-19 = test: Growth inhibition of human SNB19 cells assessed as cell growth at 10^-5 M after 48 hrs by sulforhodamine B assay; conditions: SNB-19, 48 h, read-out: Activity
SNB-75 = test: Growth inhibition of human SNB75 cells assessed as cell growth at 10^-5 M after 48 hrs by sulforhodamine B assay; conditions: SNB-75, 48 h, read-out: Activity
[4] = Growth inhibition of human HCC2998 cells assessed as cell growth at 10^-5 M after 48 hrs by sulforhodamine B assay; conditions: HCC 2998, 48 h, read-out: Activity
NCI-H522 = test: Growth inhibition of human NCI-H522 cells assessed as cell growth at 10^-5 M after 48 hrs by sulforhodamine B assay; conditions: NCI-H522, 48 h, read-out: Activity
NCI-H226 = test: Growth inhibition of human NCI-H226 cells assessed as cell growth at 10^-5 M after 48 hrs by sulforhodamine B assay; conditions: NCI-H226, 48 h, read-out: Activity
[5] = Growth inhibition of human HOP92 cells assessed as cell growth at 10^-5 M after 48 hrs by sulforhodamine B assay; conditions: HOP-92, 48 h, read-out: Activity
A549 = test: Growth inhibition of human A549/ATCC cells assessed as cell growth at 10^-5 M after 48 hrs by sulforhodamine B assay; conditions: A549, 48 h, read-out: Activity
RPMI-8226 = test: Growth inhibition of human RPMI8226 cells assessed as cell growth at 10^-5 M after 48 hrs by sulforhodamine B assay; conditions: RPMI-8226, 48 h, read-out: Activity
[6] = Growth inhibition of human MOLT4 cells assessed as cell growth at 10^-5 M after 48 hrs by sulforhodamine B assay; conditions: MOLT-4, 48 h, read-out: Activity
CCRF-CEM = test: Growth inhibition of human CCRF-CEM cells assessed as cell growth at 10^-5 M after 48 hrs by sulforhodamine B assay; conditions: read-out: Activity
MDA-MB-231 = test: Growth inhibition of human MDA-MB-231 cells assessed as cell growth at 10^-5 M after 48 hrs by sulforhodamine B assay; conditions: MDA-MB-231, 48 h, read-out: Activity
DU-145 = test: Growth inhibition of human DU145 cells assessed as cell growth at 10^-5 M after 48 hrs by sulforhodamine B assay; conditions: DU-145, 48 h, read-out: Activity
PC-3 = test: Growth inhibition of human PC3 cells assessed as cell growth at 10^-5 M after 48 hrs by sulforhodamine B assay; conditions: PC-3, 48 h, read-out: Activity
TK-10 = test: Growth inhibition of human TK10 cells assessed as cell growth at 10^-5 M after 48 hrs by sulforhodamine B assay; conditions: TK-10, 48 h, read-out: Activity
[7] = Growth inhibition of human RXF393 cells assessed as cell growth at 10^-5 M after 48 hrs by sulforhodamine B assay; conditions: RXF 393, 48 h, read-out: Activity

Row | SMILES | growth at 10 µM [1] | growth at 10 µM [2] | growth at 10 µM [3] | growth at 10 µM (Malme-3M) | growth at 10 µM (SNB-19) | growth at 10 µM (SNB-75) | growth at 10 µM [4] | growth at 10 µM (NCI-H522) | growth at 10 µM (NCI-H226) | growth at 10 µM [5] | growth at 10 µM (A549) | growth at 10 µM (RPMI-8226) | growth at 10 µM [6] | growth at 10 µM (CCRF-CEM) | growth at 10 µM (MDA-MB-231) | growth at 10 µM (DU-145) | growth at 10 µM (PC-3) | growth at 10 µM (TK-10) | growth at 10 µM [7]
1 | O=C1/C(=C/c2c(Cl)cccc2Cl)CN(S(=O)(=O)c2ccccc2)C/C1=C\c1c(Cl)cccc1Cl | 84.6% | 103% | 60.5% | 90% | 92.7% | 66.2% | 103% | 72.5% | 110% | 54.5% | 67.3% | 63.3% | 52.8% | 42.4% | 71.2% | 85.8% | 57.5% | 101% | 95.3%
2 | Cc1ccc(S(=O)(=O)N2C/C(=C\c3c(Cl)cccc3Cl)C(=O)/C(=C/c3c(Cl)cccc3Cl)C2)cc1 | 85.3% | 103% | 69.5% | 89% | 95.7% | 65.2% | 114% | 88.6% | 98.1% | 73.5% | 77.1% | 82.9% | 68.7% | 72.7% | 64.3% | 96.8% | 67.3% | 115% | 101%
